Reference: ChEMBL document CHEMBL1145163, “Structure-based design, synthesis, and memapsin 2 (BACE) inhibitory activity of carbocyclic and heterocyclic peptidomimetics” (J Med Chem, 2005)
Starred links: 1 amine or outer side, 2 acyl side, 3 side chain; linkers in the order of their positions; H or OH if unused. Non-standard residues stand in square brackets, D forms with d. Residues, ends and D or L forms follow the SMILES beside them. LeuΨ(S-CHOHCH2)Ala = CC(C)C[C@H](N[*:1])[C@@H](O)C[C@@H](C)C(=O)[*:2]; X1 = CC(C)C[C@H](N[*:1])[C@@H](O)[C@@H]1CCC[C@H]1C(=O)[*:2]

Tests used:
[1] = target: T1, Cathepsin D (Homo sapiens, UniProt P07339); assay: Inhibitory concentration against human Cathepsin D
[2] = target: T2, Beta-secretase 1 (Homo sapiens, UniProt P56817); assay: Inhibitory concentration against human Membrane-associated aspartic protease 2
[3] = target: T2, Beta-secretase 1; assay: Inhibitory activity against human beta-site APP-cleaving enzyme 1 at 0.01 uM
[4] = target: T1, Cathepsin D; assay: Inhibitory activity against human Cathepsin D at 0.01 uM

T1 sequence (P07339 65-162 limits assumed): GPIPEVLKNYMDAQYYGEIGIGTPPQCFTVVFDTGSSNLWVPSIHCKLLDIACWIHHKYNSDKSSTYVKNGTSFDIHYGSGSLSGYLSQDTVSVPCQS
T1 sequence (P07339 169-412 limits assumed): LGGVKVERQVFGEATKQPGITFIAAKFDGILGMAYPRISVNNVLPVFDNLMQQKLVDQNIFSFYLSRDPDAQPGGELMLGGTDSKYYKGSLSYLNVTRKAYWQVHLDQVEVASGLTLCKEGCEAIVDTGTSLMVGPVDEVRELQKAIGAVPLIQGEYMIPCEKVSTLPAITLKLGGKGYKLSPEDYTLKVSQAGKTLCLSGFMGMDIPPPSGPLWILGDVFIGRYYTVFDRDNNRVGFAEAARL
T2 sequence (P56817 whole entry): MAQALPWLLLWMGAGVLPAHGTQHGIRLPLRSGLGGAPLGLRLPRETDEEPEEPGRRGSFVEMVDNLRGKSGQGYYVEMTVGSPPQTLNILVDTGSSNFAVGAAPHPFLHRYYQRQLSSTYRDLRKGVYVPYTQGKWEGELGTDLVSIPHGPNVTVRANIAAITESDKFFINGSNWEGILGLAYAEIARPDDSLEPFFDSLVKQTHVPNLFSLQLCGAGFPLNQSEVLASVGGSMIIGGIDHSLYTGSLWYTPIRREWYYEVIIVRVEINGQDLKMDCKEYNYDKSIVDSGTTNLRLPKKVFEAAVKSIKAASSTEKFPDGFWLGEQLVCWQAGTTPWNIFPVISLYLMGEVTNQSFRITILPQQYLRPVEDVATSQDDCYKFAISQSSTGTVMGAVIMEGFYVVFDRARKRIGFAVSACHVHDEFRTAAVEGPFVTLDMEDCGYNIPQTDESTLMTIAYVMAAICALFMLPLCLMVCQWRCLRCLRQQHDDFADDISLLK

`CSCC[C@H](NC(=O)[C@H](CC(C)C)NC(C)=O)C(=O)N[C@@H](CC(C)C)[C@@H](O)[C@@H]1CC(=O)C[C@H]1C(=O)N[C@@H](C)C(=O)O` showed an IC50 [1] of 1500 nM and an IC50 [2] of 720 nM.

For `CSCC[C@H](NC(=O)[C@H](CC(C)C)NC(C)=O)C(=O)N[C@@H](CC(C)C)[C@@H](O)[C@@H]1CCC[C@H]1C(=O)N[C@H](C(=O)O)C(C)C`, the IC50 [1] was 25 nM and the IC50 [2] was 190 nM.

`CC(C)C[C@H](NC(=O)[C@H](CC(N)=O)NC(=O)[C@@H](NC(=O)[C@@H](N)CCC(=O)O)C(C)C)[C@@H](O)[C@@H]1CCC[C@H]1C(=O)N[C@@H](C)C(=O)N[C@@H](CCC(=O)O)C(=O)O` (H-EVN[X1]AE-OH) was tested, and the IC50 [1] was 60 nM and the IC50 [2] was 40 nM.

In the case of `C=C1C[C@@H]([C@H](O)[C@H](CC(C)C)NC(=O)[C@H](CCSC)NC(=O)[C@H](CC(C)C)NC(C)=O)[C@H](C(=O)N[C@@H](C)C(=O)O)C1`, the IC50 [1] is reported as 430 nM and the IC50 [2] is reported as > 10000 nM.

For `CCCCNC(=O)[C@@H](NC(=O)[C@@H]1CC(=O)C[C@H]1[C@H](O)[C@H](CC(C)C)NC(=O)[C@H](CCSC)NC(=O)[C@H](CC(C)C)NC(C)=O)C(C)C`, the IC50 [1] was 56 nM.

For `CCCCNC(=O)[C@@H](NC(=O)[C@H]1[C@H]([C@H](O)[C@H](CC(C)C)NC(=O)[C@H](CCSC)NC(=O)[C@H](CC(C)C)NC(C)=O)CC(=O)N1C)C(C)C`, the IC50 [1] was 70 nM, the inhibition [3] was 79% and the IC50 [2] was < 10 nM.

With `CCCCNC(=O)[C@@H](NC(=O)[C@@H]1CN(C)C[C@H]1[C@H](O)[C@H](CC(C)C)NC(=O)[C@H](CCSC)NC(=O)[C@H](CC(C)C)NC(C)=O)C(C)C` the IC50 [1] was 1230 nM and the IC50 [2] was 3440 nM.

For `CC(C)C[C@H](NC(=O)[C@H](CC(N)=O)NC(=O)[C@@H](NC(=O)[C@@H](N)CCC(=O)O)C(C)C)[C@@H](O)[C@@H]1CCC[C@H]1C(=O)N[C@@H](C)C(=O)N[C@@H](CCC(=O)O)C(=O)N[C@@H](Cc1ccccc1)C(=O)O` [CARBOCYCLIC PEPTIDOMIMETIC] (H-EVN[X1]AEF-OH), the inhibition [4] was 90%, the IC50 [1] was < 10 nM and the IC50 [2] was 16 nM.

For `CCCCNC(=O)[C@@H](NC(=O)[C@@H]1CCC[C@H]1[C@H](O)[C@H](CC(C)C)NC(=O)[C@H](CCSC)NC(=O)[C@H](CC(C)C)NC(C)=O)C(C)C`, the inhibition [4] was 100%, the IC50 [1] was < 10 nM and the IC50 [2] was 25 nM.

`CC(C)C[C@H](NC(=O)[C@H](CC(N)=O)NC(=O)[C@@H](NC(=O)[C@@H](N)CCC(=O)O)C(C)C)[C@@H](O)C[C@@H](C)C(=O)N[C@@H](C)C(=O)O` (H-EVN[LeuΨ(S-CHOHCH2)Ala]A-OH) gave an IC50 [1] of 98 nM and an IC50 [2] of 12 nM.

For `CCCCNC(=O)[C@@H]1CCC[C@H]1[C@H](O)[C@H](CC(C)C)NC(=O)[C@H](CCSC)NC(=O)[C@H](CC(C)C)NC(C)=O`, the IC50 [1] was 60 nM and the IC50 [2] was 1820 nM.

`CC(C)C[C@H](NC(=O)[C@H](CC(N)=O)NC(=O)[C@@H](NC(=O)[C@@H](N)CCC(=O)O)C(C)C)[C@@H](O)[C@@H]1CCC[C@H]1C(=O)N[C@@H](C)C(=O)O` (H-EVN[X1]A-OH) showed an IC50 [1] of 6000 nM.

For `CCCCNC(=O)[C@H](C)NC(=O)[C@@H]1CCC[C@H]1[C@H](O)[C@H](CC(C)C)NC(=O)[C@H](CCSC)NC(=O)[C@H](CC(C)C)NC(C)=O`, the inhibition [4] was 95%, the IC50 [1] was < 10 nM and the IC50 [2] was 185 nM.

For `CSCC[C@H](NC(=O)[C@H](CC(C)C)NC(C)=O)C(=O)N[C@@H](CC(C)C)[C@@H](O)[C@@H]1CCC[C@H]1C(=O)N[C@@H](C)C(=O)O`, the IC50 [1] was 90 nM and the IC50 [2] was 60 nM.

`CCCCNC(=O)[C@@H](NC(=O)[C@@H]1C(=O)N(CC)C[C@H]1[C@H](O)[C@H](CC(C)C)NC(=O)[C@H](CCSC)NC(=O)[C@H](CC(C)C)NC(C)=O)C(C)C` showed an IC50 [1] of 130 nM and an IC50 [2] of 3350 nM.

For `CC(C)C[C@H](NC(=O)[C@H](CC(N)=O)NC(=O)[C@@H](NC(=O)[C@@H](N)CCC(=O)O)C(C)C)[C@@H](O)C[C@@H](C)C(=O)N[C@@H](C)C(=O)N[C@@H](CCC(=O)O)C(=O)N[C@@H](Cc1ccccc1)C(=O)O` (H-EVN[LeuΨ(S-CHOHCH2)Ala]AEF-OH), the IC50 [1] was 6 nM.

Work on `CCCCNC(=O)[C@@H](NC(=O)[C@@H]1OCC[C@H]1[C@H](O)[C@H](CC(C)C)NC(=O)[C@H](CCSC)NC(=O)[C@H](CC(C)C)NC(C)=O)C(C)C` yielded an IC50 [1] of 280 nM and an IC50 [2] of 9560 nM.
